Reference: paper PMC5421464, “Characterization of the single-subunit oligosaccharyltransferase STT3A from Trypanosoma brucei using synthetic peptides and lipid-linked oligosaccharide analogs” (Glycobiology, 2017)
Marks after values point to notes of the source that are not given here. Ends that are not written are not given here. * marks the point of attachment. 5FAM = O=C1OC2(c3ccc(O)cc3Oc3cc(O)ccc32)c2ccc(C(=O)*)cc21

Legend:
Type in all cases: biochemical
TbSTT3A [1] = target: T1, TbSTT3A (Trypanosoma brucei, UniProt Q57W34); assay: Michaelis-Menten kinetics of the LLO analogs; conditions: for kcat (LLO analog): 20 nM TbSTT3A, 10 µM acceptor peptide, varying LLO analog concentration
T1 sequence (Q57W34 1-801): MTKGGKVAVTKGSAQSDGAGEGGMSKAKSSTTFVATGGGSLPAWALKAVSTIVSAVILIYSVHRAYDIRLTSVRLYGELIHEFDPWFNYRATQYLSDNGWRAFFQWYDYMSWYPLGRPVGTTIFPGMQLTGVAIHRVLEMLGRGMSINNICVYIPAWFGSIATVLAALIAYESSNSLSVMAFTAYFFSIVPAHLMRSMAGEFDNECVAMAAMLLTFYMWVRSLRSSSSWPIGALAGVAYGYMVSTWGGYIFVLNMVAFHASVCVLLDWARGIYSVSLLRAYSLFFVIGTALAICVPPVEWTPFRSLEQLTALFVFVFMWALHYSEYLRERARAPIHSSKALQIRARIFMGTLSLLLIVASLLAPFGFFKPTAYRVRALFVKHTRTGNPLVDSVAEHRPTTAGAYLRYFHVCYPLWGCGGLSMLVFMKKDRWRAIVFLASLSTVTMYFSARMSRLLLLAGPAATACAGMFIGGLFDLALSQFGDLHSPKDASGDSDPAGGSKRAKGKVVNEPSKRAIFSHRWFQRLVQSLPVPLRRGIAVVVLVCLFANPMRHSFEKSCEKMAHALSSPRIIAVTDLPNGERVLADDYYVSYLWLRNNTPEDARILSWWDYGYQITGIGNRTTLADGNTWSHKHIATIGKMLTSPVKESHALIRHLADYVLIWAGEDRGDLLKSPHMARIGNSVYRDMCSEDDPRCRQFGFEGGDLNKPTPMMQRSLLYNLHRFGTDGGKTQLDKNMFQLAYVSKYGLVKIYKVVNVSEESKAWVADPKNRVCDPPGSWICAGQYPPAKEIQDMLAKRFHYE
Procedure: Fig. 3. (A) Structure of the LLO analogs synthesized (1a) (S)-Citronellyl-PP-Chitobiose, C10; (1b) farnesyl-PP-chitobiose, C15; (1c) (S)-NerylCitronellyl-PP-chitobiose, C20; (1d) (S)-farnesylCitronellyl-PP-chitobiose, C25. (B) Kinetic analysis of synthetic LLO analogs. Glycosylation experiments were performed with 20 nM purified TbSTT3A, 10 µM […], 10 mM MnCl2, 150 mM NaCl, 20 mM Hepes pH 7.5, 0.035% DDM, 0.007% CHS and different concentrations of synthetic LLO analogs. Data points reflect the mean of 3 separate measurements. Error bars indicate standard deviations. Data were fitted by nonlinear regression according to the Michaelis–Menten formula using PRISM software. This figure is available in black and white in print and in color at Glycobiology online.
For Michaelis–Menten kinetics of the LLO analogs, reaction mixtures containing 20 nM TbSTT3A protein, 10 µM peptide P11, 10 mM MnCl2, 150 mM NaCl, 20 mM Hepes pH 7.5, 0.035% DDM and 0.007% CHS were incubated with different concentrations of LLO analogs (10–900 µM, for 1a; 2–60 µM, for 1b; 1–50 µM, for 1c and 1–20 µM, for 1d). Samples were taken at different time points and turnover rates of the reactions were determined as before. Data were fitted by nonlinear regression according to the Michaelis–Menten formula using PRISM software.

TbSTT3A [2] = target: T1, TbSTT3A; assay: Inhibition analysis with LLO competitive inhibitors; conditions: 20 nM TbSTT3A, 10 µM peptide P11, inhibitor 1-2500 µM preincubated 5 min, 15 µM farnesyl-PP-chitobiose 1b
Procedure: Fig. 5. (A) Structure of the LLO inhibitors synthesized (34b) farnesyl-PP-C-chitobiose, C15; (34d) (S)-farnesylCitronellyl-PP-C-chitobiose, C25. (B) Kinetic analysis of synthetic LLO inhibitors. Glycosylation experiments were performed with 20 nM TbSTT3A protein, 10 µM peptide P11, 10 mM MnCl2, 150 mM NaCl, 20 mM Hepes pH 7.5, 0.035% DDM and 0.007% CHS. Samples were incubated with LLO competitive inhibitors (1–2500 µM) for 5 min before adding 15 µM of farnesyl-PP-chitobiose, 1b. Data points reflect the mean of three separate measurements. Error bars indicate standard deviations. Data were fitted by nonlinear regression using PRISM software. This figure is available in black and white in print and in color at Glycobiology online.
For inhibition analysis, reaction mixtures containing 20 nM TbSTT3A protein, 10 µM peptide P11, 10 mM MnCl2, 150 mM NaCl, 20 mM Hepes pH 7.5, 0.035% DDM and 0.007% CHS were incubated with different concentrations of LLO competitive inhibitors (1–2500 µM) for 5 min at 30°C. Reactions were started with addition of 15 µM of farnesyl-PP-chitobiose, 1b. Samples were taken at different time points and turnover rates of the reactions were determined as before. Data were fitted to nonlinear regression and IC50 was determined using PRISM software.

TbSTT3A [3] = target: T1, TbSTT3A; assay: In vitro glycosylation assay, turnover rate of acceptor peptides (Tricine SDS-PAGE fluorescence)
Procedure: (§1) Fig. 2. Optimization of the acceptor peptide sequence. (A) Synthetic acceptor peptides are shown in single letter code. The acceptor asparagine (zero position of the sequon) is indicated in red. Glycosylation experiments were performed and the fluorescently labeled substrate (G0) and product (G1) were quantified following Tricine SDS-PAGE analysis. (B) Turnover rates after fitting the time points by linear regression using PRISM. Error bars indicate standard error of the fitting. (C) Kinetic analysis of substrate peptides: glycosylation experiments were performed with 20 nM purified TbSTT3A, 50 µM farnesyl-PP-chitobiose, 10 mM MnCl2, 150 mM NaCl, 20 mM Hepes pH 7.5, 0.035% DDM, 0.007% CHS and different concentrations of peptides varying from 2 to 60 µM. Data points reflect the mean of three separate measurements. Error bars indicate standard deviations. Data were fitted by nonlinear regression according to the Michaelis–Menten formula using PRISM. This figure is available in black and white in print and in color at Glycobiology online.
Reaction mixtures contained 20 nM purified TbSTT3A protein, 50µM farnesyl-PP-GlcNAc or farnesyl-PP-chitobiose, 10 mM MnCl2, 150 mM NaCl, 20 mM Hepes pH 7.5, 0.035% DDM, 0.007% CHS and 20 µM of the peptide. Reactions were incubated at 30°C. Samples were taken at different time points and reactions were stopped by the addition of 4X SDS Laemmli buffer. Samples were diluted 200-fold prior to analysis by Tricine SDS-PAGE consisting of a 16% resolving gel with 6 M urea, a 10% spacer gel and a 4% stacking gel ([Schägger 2006]). Fluorescent bands for peptide and glycopeptide were visualized by using a Typhoon Trio Plus imager (GE Healthcare) with excitation set at 488 nm and using a 526 nm SP emission filter. The amount of formed glycopeptide was determined from band intensities of fluorescence gel scans (ImageJ) ([Gerber et al. 2013]). Turnover rate determination was performed by fitting of the data to linear regression using PRISM software.
Supplementary Figure 2: Glycosylation Assays with farnesyl-PP-GlcNAc. In vitro glycosylation experiments were performed with 20nM purified TbStt3A purified protein, 50µM Farnesyl-PP-GlcNAc or Farnesyl-PP-GlcNac2, 10 mM MnCl2, 150 mM NaCl, 20 mM Hepes pH 7.5, 0.035% DDM, 0.007% CHS and 10 µM of the peptide P1.

TbSTT3A [4] = target: T1, TbSTT3A; assay: Michaelis-Menten kinetics of the peptides; conditions: 20 nM TbSTT3A, 50 µM farnesyl-PP-chitobiose, peptide 2-60 µM, 30°C
Procedure: as §1
For Michaelis–Menten kinetics of the peptides, reaction mixtures containing 20 nM TbSTT3A protein, 50 µM farnesyl-PP-chitobiose, 10 mM MnCl2, 150 mM NaCl, 20 mM Hepes pH 7.5, 0.035% DDM and 0.007% CHS were incubated with varying concentrations (2–60 µM) of peptides P11, P13 and P14. Samples were taken at different time points and the turnover rate of the reactions were determined as before. Data were fitted by nonlinear regression according to the Michaelis–Menten formula using PRISM software.

For `CC(=O)N[C@H]1[C@@H](OP(=O)(O)OP(=O)(O)OCC[C@@H](C)CC/C=C(/C)CC/C=C(\C)CC/C=C(\C)CCC=C(C)C)O[C@H](CO)[C@@H](O[C@@H]2O[C@H](CO)[C@@H](O)[C@H](O)[C@H]2NC(C)=O)[C@@H]1O` [1d, P1-2-acetamido-O-(2-acetamido-2-deoxy-β-D-glucopyranosyl)-(1-4)-2-deoxy-α-D-glucopyranosyl P2-(S,6Z,10E,14E)-3,7,11,15,19-pentamethylicosa-6,10,14,18-tetraen-1-yl diphosphate], the “kcat (LLO analog)” value (TbSTT3A [1]) was 16 ± 1 pep/min.

`CC(=O)N[C@@H]1[C@@H](O)[C@H](O[C@@H]2O[C@H](CO)[C@@H](O)[C@H](O)[C@H]2NC(C)=O)[C@@H](CO)O[C@@H]1CP(=O)(O)OP(=O)(O)OCC[C@@H](C)CC/C=C(/C)CC/C=C(\C)CC/C=C(\C)CCC=C(C)C` [34d, (((2S,3R,4R,5S,6R)-3-acetamido-5-(((2S,3R,4R,5S,6R)-3-acetamido-4,5-dihydroxy-6-(hydroxymethyl)tetrahydro-2H-pyran-2-yl)oxy)-4-hydroxy-6-(hydroxymethyl)tetrahydro-2H-pyran-2-yl)methyl)phosphonic ((S,6Z,10E,14E)-3,7,11,15,19-pentamethylicosa-6,10,14,18-tetraen-1-ylphosphoric) anhydride] was tested, and the IC50 (TbSTT3A [2]) was 26 ± 3 µM.

`CC(=O)N[C@H]1[C@@H](OP(=O)(O)OP(=O)(O)OC/C=C(\C)CC/C=C(\C)CCC=C(C)C)O[C@H](CO)[C@@H](O[C@@H]2O[C@H](CO)[C@@H](O)[C@H](O)[C@H]2NC(C)=O)[C@@H]1O` [1b, P1-2-acetamido-O-(2-acetamido-2-deoxy-β-D-glucopyranosyl)-(1-4)-2-deoxy-α-D-glucopyranosyl P2-(2E,6E)-3,7,11-Trimethyldodeca-2,6,10-trien-1-yl diphosphate] was tested, and the “kcat (LLO analog)” value (TbSTT3A [1]) was 12 ± 1 pep/min and the “Apparent affinity lower compared to 1d” value (TbSTT3A [1]; from KM values, Table II) was 2 fold.

Work on `CC(=O)N[C@@H]1[C@@H](O)[C@H](O[C@@H]2O[C@H](CO)[C@@H](O)[C@H](O)[C@H]2NC(C)=O)[C@@H](CO)O[C@@H]1CP(=O)(O)OP(=O)(O)OC/C=C(\C)CC/C=C(\C)CCC=C(C)C` [34b, (((2S,3R,4R,5S,6R)-3-acetamido-5-(((2S,3R,4R,5S,6R)-3-acetamido-4,5-dihydroxy-6-(hydroxymethyl)tetrahydro-2H-pyran-2-yl)oxy)-4-hydroxy-6-(hydroxymethyl)tetrahydro-2H-pyran-2-yl)methyl)phosphonic ((2E,6E)-3,7,11-trimethyldodeca-2,6,10-trien-1-ylphosphoric) anhydride] yielded an IC50 (TbSTT3A [2]) of 167 ± 14 µM.

With “5CF-GSDANYTY (5FAM-GSDANYTY) [P11, 5-carboxyfluorescein labeled acceptor peptide]” the “Glycosylation of acceptor peptide (result in words)” value (TbSTT3A [3]; farnesyl-PP-chitobiose 1b donor) was “highest turnover rate” and the “kcat (substrate peptide)” value (TbSTT3A [4]) was 37 ± 5^a pep/min.

For `CC(=O)NC1C(OC2C(CO)OC(OP(=O)(O)OP(=O)(O)OCCC(C)CCC=C(C)CCC=C(C)CCC=C(C)C)C(NC(C)=O)C2O)OC(CO)C(O)C1O` [1c, P1-2-acetamido-O-(2-acetamido-2-deoxy-β-D-glucopyranosyl)-(1-4)-2-deoxy-α-D-glucopyranosyl P2-(3S,6Z,10Z)-3,7,11,15-tetramethylhexadeca-6,10,14-trien-1-yl diphosphate], the “kcat (LLO analog)” value (TbSTT3A [1]) was 23 ± 1 pep/min.

For `CC(=O)N[C@H]1[C@@H](OP(=O)(O)OP(=O)(O)OCC[C@@H](C)CCC=C(C)C)O[C@H](CO)[C@@H](O[C@@H]2O[C@H](CO)[C@@H](O)[C@H](O)[C@H]2NC(C)=O)[C@@H]1O` [1a, P1-2-acetamido-O-(2-acetamido-2-deoxy-β-D-glucopyranosyl)-(1-4)-2-deoxy-α-D-glucopyranosyl P2-(S)-3,7-dimethyloct-6-en-1-yl diphosphate], the “kcat (LLO analog)” value (TbSTT3A [1]) was 9.1 ± 0.5 pep/min.

“5CF-GSDANYTYTQ (5FAM-GSDANYTYTQ) [P14, 5-carboxyfluorescein labeled acceptor peptide, P11 elongated at the C-terminus]” was tested, and the “Increase in glycosylation turnover” value (TbSTT3A [3]; from the initial DANYTK to GSDANYTYTQ) was “about 3 fold”, the “kcat (substrate peptide)” value (TbSTT3A [4]) was 28 ± 1 pep/min and the Km (TbSTT3A [4]; read-out: KM (substrate peptide)) was 28 ± 3 µM.
